Experimental data reported in patent publication US7408065B2, “P2X7 receptor antagonists and their use” (AstraZeneca AB, priority 2003, dated 2008).
Counter-ions that a name gives are not always drawn. Like-named read-outs stand apart in the source and are kept apart here.

Tests used:
P2X7 receptor = molecular target: T1, P2X7 receptor (Homo sapiens, UniProt Q99572); experiment: P2X7 receptor antagonist activity: bbATP-induced ethidium bromide fluorescence in THP-1 cells; assay type: cell-based
T1 construct: 200 μl of a suspension of THP-1 cells; endogenous in cells; host or cells: THP-1 cells
T1 sequence (Q99572 1-595): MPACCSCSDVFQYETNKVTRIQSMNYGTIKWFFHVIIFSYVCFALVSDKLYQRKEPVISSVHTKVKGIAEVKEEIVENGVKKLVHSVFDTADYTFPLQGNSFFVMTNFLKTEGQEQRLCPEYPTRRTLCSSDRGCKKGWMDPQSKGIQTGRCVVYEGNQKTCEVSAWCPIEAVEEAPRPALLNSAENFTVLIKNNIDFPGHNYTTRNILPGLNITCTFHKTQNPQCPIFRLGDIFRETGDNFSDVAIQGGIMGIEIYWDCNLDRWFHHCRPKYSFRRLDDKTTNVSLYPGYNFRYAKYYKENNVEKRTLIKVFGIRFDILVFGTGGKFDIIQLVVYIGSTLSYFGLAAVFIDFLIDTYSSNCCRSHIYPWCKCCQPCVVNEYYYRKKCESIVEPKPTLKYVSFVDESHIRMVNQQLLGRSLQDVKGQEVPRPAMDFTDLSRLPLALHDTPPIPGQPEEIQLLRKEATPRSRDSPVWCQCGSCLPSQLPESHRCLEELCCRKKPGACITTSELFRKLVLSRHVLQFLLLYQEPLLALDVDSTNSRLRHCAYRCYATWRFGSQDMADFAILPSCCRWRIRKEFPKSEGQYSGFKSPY
Description: Consequently, when the receptor is activated using bbATP in the presence of ethidium bromide (a fluorescent DNA probe), an increase in the fluorescence of intracellular DNA-bound ethidium bromide is observed. The increase in fluorescence can be used as a measure of P2X7 receptor activation and therefore to quantify the effect of a compound on the P2X7 receptor.
In this manner, each of the title compounds of the Examples was tested for antagonist activity at the P2X7 receptor. Thus, the test was performed in 96-well flat bottomed microtitre plates, the wells being filled with 250 μl of test solution comprising 200 μl of a suspension of THP-1 cells (2.5×10^6 cells/ml) containing 10^−4M ethidium bromide, 25 μl of a high potassium buffer solution containing 10^−5M bbATP, and 25 μl of the high potassium buffer solution containing 3×10^−5M test compound. The plate was covered with a plastics sheet and incubated at 37° C. for one hour. […] For the purposes of comparison, bbATP (a P2X7 receptor agonist) and pyridoxal 5-phosphate (a P2X7 receptor antagonist) were used separately in the test as controls.

[1] = THP-1 cells, negative logarithm of concentration reducing bbATP agonist activity by 50%, ethidium bromide fluorescence, 37° C., one hour, read-out: pIC50 (converted)

IC50 (P2X7 receptor; [1]) [nM]	melting point [°C]	IC50 (P2X7 receptor) [nM]	SMILES
126			O=C(CC1CCCCC1)Nc1c(Cl)ccc2nc(NCCCO)ccc12 [Example 5, N-[6-Chloro-2-[(3-hydroxypropyl)amino]-5-quinolinyl]-cyclohexaneacetamide, Hydrochloride]
25.1			O=C(CC1CCCCC1)Nc1c(Cl)ccc2nc(NCCNCCO)ccc12 [Example 17, N-[6-Chloro-2-[[2-[(2-hydroxyethyl)amino]ethyl]amino]-5-quinolinyl]-cyclohexaneacetamide, Dihydrochloride]
126			CC1CCC(CC(=O)Nc2cccc3ncccc23)CC1 (stereo not drawn) [Example 20, 4-Methyl-N-5-quinolinyl-cyclohexaneacetamide]
	151 to 152	501	CS(=O)(=O)NC(=O)NCCCc1ccc2c(NC(=O)CC3CCCCC3)c(Cl)ccc2n1 [Example 24, N-[6-Chloro-2-[3-[[[(methylsulfonyl)amino]carbonyl]amino]propyl]-5-quinolinyl]-cyclohexaneacetamide]
39.8	226 to 227		O=C(CC1CCCCC1)Nc1c(Cl)ccc2nc(N3CC[C@@H](O)C3)ccc12 [Example 28, N-[6-Chloro-2-[(3R)-3-hydroxy-1-pyrrolidinyl]-5-quinolinyl]-cyclohexaneacetamide]
25.1	169		CN[C@@H]1CCN(c2ccc3c(NC(=O)CC4CCCCC4)c(Cl)ccc3n2)C1 [Example 33, N-[6-Chloro-2-[(3R)-3-(methylamino)-1-pyrrolidinyl]-5-quinolinyl]-cyclohexaneacetamide]
50.1	209 to 214		O=C(CC1CCCCC1)Nc1c(Cl)ccc2nc(N3CCC[C@@H](O)C3)ccc12 [Example 37, N-[6-Chloro-2-[(3R)-3-hydroxy-1-piperidinyl]-5-quinolinyl]-cyclohexaneacetamide]
316			O=C(NCC1CCCCC1)c1c(Cl)ccc2ncccc12 [Example 42, 6-Chloro-N-(cyclohexylmethyl)quinoline-5-carboxamide]
398			O=C(O)CN1CCN(c2ccc3c(C(=O)NCC4CCCCC4)c(Cl)ccc3n2)CC1 [Example 73, 4-[6-Chloro-5-[[(cyclohexylmethyl)amino]carbonyl]-2-quinolinyl]-1-piperazineacetic acid, Acetate]
200	233 to 235		O=C(CC1CCCCC1)Nc1c(Cl)ccc2nc(N3CCC(c4noc(=O)[nH]4)CC3)ccc12 [Example 102, N-[6-Chloro-2-[4-(4,5-dihydro-5-oxo-1,2,4-oxadiazol-3-yl)-1-piperidinyl]-5-quinolinyl]-cyclohexaneacetamide]
	90 to 93		O=C(NCC1CCCCC1)c1c(Cl)ccc2nc(CCCCc3nnn[nH]3)ccc12 [Example 106, 6-Chloro-N-(cyclohexylmethyl)-2-[4-(1H-tetrazol-5-yl)butyl]-5-quinolinecarboxamide]
	177 to 181		O=C(CC1CCCCC1)Nc1c(Cl)ccc2nc(N3CC[C@H](OCCc4nnn[nH]4)C3)ccc12 [Example 107, N-[6-Chloro-2-[(3S)-3-[2-(1H-tetrazol-5-yl)ethoxy]-1-pyrrolidinyl]-5-quinolinyl]-cyclohexaneacetamide]
	185 to 190		O=C(CC1CCCCC1)Nc1c(Cl)ccc2nc(N3CC[C@H](OCCc4noc(=O)[nH]4)C3)ccc12 [Example 108, N-[6-Chloro-2-[(3S)-3-[2-(4,5-dihydro-5-oxo-1,2,4-oxadiazol-3-yl)ethoxy]-1-pyrrolidinyl]-5-quinolinyl]-cyclohexaneacetamide]
	295 to 300		O=C(CC1CCCCC1)Nc1c(Cl)ccc2nc(N3CCC(c4nnn[nH]4)CC3)ccc12 [Example 109, N-[6-Chloro-2-[4-(1H-tetrazol-5-yl)-1-piperidinyl]-5-quinolinyl]cyclohexane-acetamide]
	255 to 257		O=C(NCC1CCCCC1)c1c(Cl)ccc2nc(N3CCC(c4nnn[nH]4)CC3)ccc12 [Example 110, 6-Chloro-N-(cyclohexylmethyl)-2-[4-(1H-tetrazol-5-yl)-1-piperidinyl]-5-quinolinecarboxamide]
	252 to 255		O=C(NCCC1CCCCC1)c1c(Cl)ccc2nc(N3CCC(c4nnn[nH]4)CC3)ccc12 [Example 111, 6-Chloro-N-(2-cyclohexylethyl)-2-[4-(1H-tetrazol-5-yl)-1-piperidinyl]-5-quinolinecarboxamide]
316			O=C1CN([C@H]2CCN(c3ccc4c(C(=O)NCC5CCCCC5)c(Cl)ccc4n3)C2)S(=O)(=O)N1 [Example 112, 6-Chloro-N-(cyclohexylmethyl)-2-[(3S)-3-(1,1-dioxido-4-oxo-1,2,5-thiadiazolidin-2-yl)-1-pyrrolidinyl]-5-quinolinecarboxamide]
	235 to 237		N#CC1CCN(c2ccc3c(NC(=O)CC4CCCCC4)c(Cl)ccc3n2)CC1 [Example 113, N-[6-Chloro-2-(4-cyan-1-piperidinyl)-5-quinolinyl]-cyclhexaneacetamide]
	187 to 189		O=C(CC1CCCCC1)Nc1c(Cl)ccc2nc(N3CCC(NS(=O)(=O)C(F)(F)F)CC3)ccc12 [Example 114, N-[6-Chloro-2-[4-[[(trifluoromethyl)sulfonyl]amino]-1-piperidinyl]-5-quinolinyl]-cyclohexaneacetamide]
